Experimental data from a melting point compilation (Tetko et al.; mined from patent text by program, amines drawn as free bases though some values may be those of a salt).

Row | melting point [°C] | SMILES
1 | 152 to 153 | Cc1cc(C)c(C(O)P(=O)(c2ccccc2)c2ccccc2)c(C)c1 (stereo not drawn)
2 | > 120 | CCCCc1nc(C(O)CC)c(C(N)=O)n1Cc1ccc(-c2ccccc2C(=O)O)cc1 (stereo not drawn)
3 | 221 to 223 | COc1ccc(-c2c(Cl)c(CN3C(=O)CCC3=O)nc3sc4c(c23)CC(C)(C)C(OCc2ccccc2)C4)cc1 (stereo not drawn)
4 | 206 to 207 | NC(=O)c1cc(-c2ccc(F)cc2)ccc1O
5 | 120 to 122 | CCN1C(=O)C(=C(Cc2ccccc2)OC)SC1=S
6 | 234 to 235 | Oc1c2c(nn1-c1nc3ccccc3s1)CCc1ccccc1-2
7 | 42 to 43 | Cc1cc(OCc2ccccc2)ccc1OCc1ccccc1
8 | 126 to 128 | COC(=O)c1cccc2nc(SCCCCCCCCC(=O)Nc3c(SC)cc(C)nc3SC)oc12
9 | 110 | COc1cccc(N(CC(=O)OC(C)(C)C)C(=O)CCl)c1
10 | 78 | CC(C)(C)NCC(O)COc1ccccc1Cc1cccc2[nH]ccc12 (stereo not drawn)
11 | 114 to 116 | CCOP(=O)(OCC)c1nc(N2CCOCC2)nc(N2CCOCC2)n1
12 | 247 to 252 | Cc1ccc(C(=O)C2=C(O)C(=O)N(c3ncc(S(=O)(=O)N4CCOCC4)s3)C2c2ccc(C(C)C)cc2)cc1 (stereo not drawn)
13 | 42 to 43 | COCOc1ccc(CO[Si](C)(C)C(C)(C)C)c2cccc(C)c12
14 | 255 to 257 | O=c1c2c(Cc3ccccc3)n[nH]c2c2ccccc2n1-c1ccccc1
15 | 152 to 154 | CC1(C(O)C(Cc2ccc(Cl)cc2)n2cncn2)COCOC1 (stereo not drawn)
16 | > 260 | O=c1oc2cccc(O)c2c2ccc([N+](=O)[O-])cc12
17 | 207 to 208 | Cc1nc(NC(=O)c2cccc(C#N)c2)sc1C(=O)NCc1ccccc1
18 | 158 to 160 | O=C(NCCCCCNC(=O)c1ccc2c(c1)OCO2)c1ccc2c(c1)OCO2

Second part, the molecule before the results:

Row | SMILES | melting point [°C]
19 | Cc1c(C)c2c(c(C)c1O)SC(C)(c1ccccc1)O2 (stereo not drawn) | 80 to 81
20 | Oc1ccccc1Nc1nccc(-c2cccnc2)n1 | 166 to 169
21 | CCOC(=O)COc1ccccc1Cn1c(-c2ccc(C(F)(F)F)cc2)c(C)c2cc(OCc3ccccc3)ccc21 | 221
22 | O=S(=O)(N=Cc1cccnc1)c1ccccc1 | 123
23 | COC(=O)C1=C(C)NC2=C(C(=O)OC2C)C1c1ccccc1Cl (stereo not drawn) | 228 to 233
24 | CC(=NO)C(C)(C)NCCCNC(C)(C)C(Cn1cc(C)nc1[N+](=O)[O-])=NO | 140 to 141
25 | Cc1cc2nc3c4cc([N+](=O)[O-])ccc4n(CCN(C)C)c3nc2cc1C | 219
26 | CC(=O)OC1(C(C)=O)CCC2C3C=C(Cl)C4=CC(=O)OC(O)C4(C)C3CCC21C (stereo not drawn) | 276 to 278
27 | CN(C)Cc1cc(CSCCNc2ncc([N+](=O)[O-])c(=O)[nH]2)cs1 | 150 to 153
28 | NCCCNc1n[nH]c(=O)c2ccccc12 | 147 to 148
29 | CN(C)S(=O)(=O)NC1CCC(CCN2CCN(c3nccc4c3OCC4)CC2)CC1 (stereo not drawn) | 128
30 | CN1CCC(c2cccc3ccc(-n4cnc5ncccc54)cc23)CC1 | 118 to 120
31 | COC(=O)COc1ccc2cc(CNC(=O)c3cc(-c4ccc(Cl)cc4)oc3C)ccc2c1 | 168 to 169
32 | OCCNc1cc(Nc2ccc(N3CCOCC3)cc2)ncn1 | 204 to 207
33 | Cc1cc(Nc2nc(-c3ccncc3)nc3ccccc23)[nH]n1 | 286 to 289
34 | Cc1cc(C)c(C(=O)P(=O)(C(=O)c2c(C)cc(C)cc2C)c2ccccc2)c(C)c1 | 130 to 131
35 | Nc1c(Cl)cc(C(O)CNCCCCCCSCCc2ccccn2)cc1Cl (stereo not drawn) | 83 to 84
36 | CCNc1nc(NC(C)C)nc(OC)n1 | 95 to 96
37 | COc1ccc(C(CCCCC(=O)NO)C2=C(C)C(=O)c3ccccc3C2=O)cc1 (stereo not drawn) | 129 to 130
38 | OCc1ccc2c(c1)C1(c3ccccc3-2)c2ccccc2-c2ccc(CO)cc21 | 254 to 255
